How the values were obtained:
Type in all cases: functional
Settings in all cases: read-out: GI
[1] = test system: CCRF-CEM; assay: Growth inhibition of human CCRF-CEM cells at 10 uM incubated for 48 hrs by sulforhodamine B assay relative to control
[2] = test system: HL-60(TB); assay: Growth inhibition of human HL-60(TB) cells at 10 uM incubated for 48 hrs by sulforhodamine B assay relative to control
[3] = test system: K562; assay: Growth inhibition of human K562 cells at 10 uM incubated for 48 hrs by sulforhodamine B assay relative to control
[4] = test system: MOLT-4; assay: Growth inhibition of human MOLT-4 cells at 10 uM incubated for 48 hrs by sulforhodamine B assay relative to control
[5] = test system: RPMI-8226; assay: Growth inhibition of human RPMI-8226 cells at 10 uM incubated for 48 hrs by sulforhodamine B assay relative to control
[6] = test system: SR; assay: Growth inhibition of human SR cells at 10 uM incubated for 48 hrs by sulforhodamine B assay relative to control
[7] = test system: A549; assay: Growth inhibition of human A549/ATCC cells at 10 uM incubated for 48 hrs by sulforhodamine B assay relative to control
[8] = test system: HOP-62; assay: Growth inhibition of human HOP-62 cells at 10 uM incubated for 48 hrs by sulforhodamine B assay relative to control
[9] = test system: HOP-92; assay: Growth inhibition of human HOP-92 cells at 10 uM incubated for 48 hrs by sulforhodamine B assay relative to control
[10] = test system: NCI-H23; assay: Growth inhibition of human NCI-H23 cells at 10 uM incubated for 48 hrs by sulforhodamine B assay relative to control
[11] = test system: NCI-H522; assay: Growth inhibition of human NCI-H522 cells at 10 uM incubated for 48 hrs by sulforhodamine B assay relative to control
[12] = test system: HCC 2998; assay: Growth inhibition of human HCC 2998 cells at 10 uM incubated for 48 hrs by sulforhodamine B assay relative to control
[13] = test system: HCT-116; assay: Growth inhibition of human HCT-116 cells at 10 uM incubated for 48 hrs by sulforhodamine B assay relative to control
[14] = test system: HCT-15; assay: Growth inhibition of human HCT-15 cells at 10 uM incubated for 48 hrs by sulforhodamine B assay relative to control
[15] = test system: HT-29; assay: Growth inhibition of human HT-29 cells at 10 uM incubated for 48 hrs by sulforhodamine B assay relative to control
[16] = test system: KM12; assay: Growth inhibition of human KM12 cells at 10 uM incubated for 48 hrs by sulforhodamine B assay relative to control
[17] = test system: SF-268; assay: Growth inhibition of human SF-268 cells at 10 uM incubated for 48 hrs by sulforhodamine B assay relative to control
[18] = test system: SF-295; assay: Growth inhibition of human SF-295 cells at 10 uM incubated for 48 hrs by sulforhodamine B assay relative to control
[19] = test system: SF-539; assay: Growth inhibition of human SF-539 cells at 10 uM incubated for 48 hrs by sulforhodamine B assay relative to control
[20] = test system: SNB-19; assay: Growth inhibition of human SNB-19 cells at 10 uM incubated for 48 hrs by sulforhodamine B assay relative to control
[21] = test system: SNB-75; assay: Growth inhibition of human SNB-75 cells at 10 uM incubated for 48 hrs by sulforhodamine B assay relative to control
[22] = test system: U-251; assay: Growth inhibition of human U-251 cells at 10 uM incubated for 48 hrs by sulforhodamine B assay relative to control
[23] = test system: LOX IMVI; assay: Growth inhibition of human LOX IMVI cells at 10 uM incubated for 48 hrs by sulforhodamine B assay relative to control
[24] = test system: M14; assay: Growth inhibition of human M14 cells at 10 uM incubated for 48 hrs by sulforhodamine B assay relative to control
[25] = test system: MDA-MB-435; assay: Growth inhibition of human MDA-MB-435 cells at 10 uM incubated for 48 hrs by sulforhodamine B assay relative to control
[26] = test system: SK-MEL-28; assay: Growth inhibition of human SK-MEL-28 cells at 10 uM incubated for 48 hrs by sulforhodamine B assay relative to control
[27] = test system: SK-MEL-5; assay: Growth inhibition of human SK-MEL-5 cells at 10 uM incubated for 48 hrs by sulforhodamine B assay relative to control
[28] = test system: UACC-257; assay: Growth inhibition of human UACC-257 cells at 10 uM incubated for 48 hrs by sulforhodamine B assay relative to control
[29] = test system: UACC-62; assay: Growth inhibition of human UACC-62 cells at 10 uM incubated for 48 hrs by sulforhodamine B assay relative to control
[30] = test system: OVCAR-4; assay: Growth inhibition of human OVCAR-4 cells at 10 uM incubated for 48 hrs by sulforhodamine B assay relative to control
[31] = test system: OVCAR-8; assay: Growth inhibition of human OVCAR-8 cells at 10 uM incubated for 48 hrs by sulforhodamine B assay relative to control
[32] = test system: SK-OV-3; assay: Growth inhibition of human SK-OV-3 cells at 10 uM incubated for 48 hrs by sulforhodamine B assay relative to control
[33] = test system: ACHN; assay: Growth inhibition of human ACHN cells at 10 uM incubated for 48 hrs by sulforhodamine B assay relative to control
[34] = test system: RXF 393; assay: Growth inhibition of human RXF 393 cells at 10 uM incubated for 48 hrs by sulforhodamine B assay relative to control
[35] = test system: SN12C; assay: Growth inhibition of human SN12C cells at 10 uM incubated for 48 hrs by sulforhodamine B assay relative to control
[36] = test system: TK-10; assay: Growth inhibition of human TK-10 cells at 10 uM incubated for 48 hrs by sulforhodamine B assay relative to control
[37] = test system: UO-31; assay: Growth inhibition of human UO-31 cells at 10 uM incubated for 48 hrs by sulforhodamine B assay relative to control
[38] = test system: PC-3; assay: Growth inhibition of human PC-3 cells at 10 uM incubated for 48 hrs by sulforhodamine B assay relative to control
[39] = test system: DU-145; assay: Growth inhibition of human DU-145 cells at 10 uM incubated for 48 hrs by sulforhodamine B assay relative to control
[40] = test system: MCF7; assay: Growth inhibition of human MCF7 cells at 10 uM incubated for 48 hrs by sulforhodamine B assay relative to control
[41] = test system: MDA-MB-231; assay: Growth inhibition of human MDA-MB-231 cells at 10 uM incubated for 48 hrs by sulforhodamine B assay relative to control
[42] = test system: BT-549; assay: Growth inhibition of human BT-549 cells at 10 uM incubated for 48 hrs by sulforhodamine B assay relative to control
[43] = test system: T47D; assay: Growth inhibition of human T47D cells at 10 uM incubated for 48 hrs by sulforhodamine B assay relative to control
[44] = test system: MDA-MB-468; assay: Growth inhibition of human MDA-MB-468 cells at 10 uM incubated for 48 hrs by sulforhodamine B assay relative to control

O=C(CN(c1ccccc1)c1ccccc1)Nc1ccc(-c2nc3ccccc3s2)cc1
inhibition of growth at 10 µM [1]: -6.75% | inhibition of growth at 10 µM [2]: -1.45% | inhibition of growth at 10 µM [3]: 3.89% | inhibition of growth at 10 µM [4]: -4.25% | inhibition of growth at 10 µM [5]: -15.6% | inhibition of growth at 10 µM [6]: 2.68% | inhibition of growth at 10 µM [7]: -5.7% | inhibition of growth at 10 µM [8]: -5.28% | inhibition of growth at 10 µM [9]: 11.2% | inhibition of growth at 10 µM [10]: 3.7% | inhibition of growth at 10 µM [11]: 2.41% | inhibition of growth at 10 µM [12]: -1.62% | inhibition of growth at 10 µM [13]: -5.38% | inhibition of growth at 10 µM [14]: -8.11% | inhibition of growth at 10 µM [15]: -5.89% | inhibition of growth at 10 µM [16]: -6.94% | inhibition of growth at 10 µM [17]: -3.74% | inhibition of growth at 10 µM [18]: -3.15% | inhibition of growth at 10 µM [19]: 4.21% | inhibition of growth at 10 µM [20]: -7.16% | inhibition of growth at 10 µM [21]: 2.08% | inhibition of growth at 10 µM [22]: -5.92% | inhibition of growth at 10 µM [23]: 6.1% | inhibition of growth at 10 µM [24]: -10.1% | inhibition of growth at 10 µM [25]: -4.11% | inhibition of growth at 10 µM [26]: -10.5% | inhibition of growth at 10 µM [27]: 7.11% | inhibition of growth at 10 µM [28]: -8.16% | inhibition of growth at 10 µM [29]: 2.85% | inhibition of growth at 10 µM [30]: -13.3% | inhibition of growth at 10 µM [31]: -0.82% | inhibition of growth at 10 µM [32]: -11.4% | inhibition of growth at 10 µM [33]: -13.4% | inhibition of growth at 10 µM [34]: -5.12% | inhibition of growth at 10 µM [35]: -3.04% | inhibition of growth at 10 µM [36]: -2.02% | inhibition of growth at 10 µM [37]: 3.62% | inhibition of growth at 10 µM [38]: 2.35% | inhibition of growth at 10 µM [39]: -5.31% | inhibition of growth at 10 µM [40]: 52% | inhibition of growth at 10 µM [41]: -3.01% | inhibition of growth at 10 µM [42]: -12.2% | inhibition of growth at 10 µM [43]: 13.6% | inhibition of growth at 10 µM [44]: 61.3%

O=C(Cn1c2ccccc2c2ccccc21)Nc1ccc(-c2nc3ccccc3s2)cc1
inhibition of growth at 10 µM [1]: -5.65% | inhibition of growth at 10 µM [2]: -3.61% | inhibition of growth at 10 µM [3]: 4.71% | inhibition of growth at 10 µM [4]: 5.92% | inhibition of growth at 10 µM [5]: -18% | inhibition of growth at 10 µM [6]: 15.7% | inhibition of growth at 10 µM [7]: 0.89% | inhibition of growth at 10 µM [8]: -0.99% | inhibition of growth at 10 µM [9]: -7.01% | inhibition of growth at 10 µM [10]: 6.54% | inhibition of growth at 10 µM [11]: 3.42% | inhibition of growth at 10 µM [12]: 0.28% | inhibition of growth at 10 µM [13]: -7.02% | inhibition of growth at 10 µM [14]: -0.3% | inhibition of growth at 10 µM [15]: -6.06% | inhibition of growth at 10 µM [16]: 0.15% | inhibition of growth at 10 µM [17]: 6.55% | inhibition of growth at 10 µM [18]: 3.61% | inhibition of growth at 10 µM [19]: 4.12% | inhibition of growth at 10 µM [20]: -4.51% | inhibition of growth at 10 µM [21]: 3.22% | inhibition of growth at 10 µM [22]: 6.01% | inhibition of growth at 10 µM [23]: 8.68% | inhibition of growth at 10 µM [24]: -14% | inhibition of growth at 10 µM [25]: -1.43% | inhibition of growth at 10 µM [26]: -7.99% | inhibition of growth at 10 µM [27]: 6.47% | inhibition of growth at 10 µM [28]: -1.24% | inhibition of growth at 10 µM [29]: 4.66% | inhibition of growth at 10 µM [30]: -2.83% | inhibition of growth at 10 µM [31]: -2.86% | inhibition of growth at 10 µM [32]: -7.77% | inhibition of growth at 10 µM [33]: -4.15% | inhibition of growth at 10 µM [34]: -10.8% | inhibition of growth at 10 µM [35]: -1.32% | inhibition of growth at 10 µM [36]: -1.97% | inhibition of growth at 10 µM [37]: 12.8% | inhibition of growth at 10 µM [38]: -4.16% | inhibition of growth at 10 µM [39]: -2.93% | inhibition of growth at 10 µM [40]: 67.4% | inhibition of growth at 10 µM [41]: 4.37% | inhibition of growth at 10 µM [42]: -5.6% | inhibition of growth at 10 µM [43]: 15.5% | inhibition of growth at 10 µM [44]: 83.4%
